These results are taken from patent US6436419B1, “Antimicrobial treatment of polymers” (The Regents of the University of California, priority 1998, dated 2002).

Data set [1] is described as follows: Add-on rates of quaternary ammonium salts on dyed and undyed nylon fabrics and weight loss after Launder-Ometer washing. Conditions: for Add-on rate after 7 washes (%): Launder-Ometer, AATCC test method 61; for Total weight loss after the + 7 washes (%): after finishing and 7 Launder-Ometer washes. It counts as physicochemical. How it is done:
Nylon fabrics were dyed with 1% on weight fabric (o.w.f.) dye solutions at 95° C. for 90 min. The liquor ratio was 1:50, and the pH of the dye bath was adjusted to pH=3.5 with acetic acid. The dyed fabrics were washed with the AATCC standard detergent after dyeing and then cured at 120° C. for 15 minutes.
The antibacterial finishing baths were prepared by dissolving quaternary ammonium salts in distilled water. The pH value was adjusted to pH=4 with acetic acid. The dyed nylon fabric was dipped in the antibacterial agent solution, padded to a wet pick up of about 60% and cured at an elevated temperature for an extended period.
The finished fabric was washed in a Launder-Ometer, according to AATCC Test Method 61-1994 to evaluate the washing durability. One cycle of Launder-Ometer washing test by this AATCC Test Method is equivalent to about five machine washes in a home laundry practice.
The nylon fabrics were first dyed with two different acid dyes at concentration of 1% on weight fabric (o.w.f) and then treated with the quaternary ammonium salts.
The weight loss of a fabric sample is calculated based on its total weight change after the finishing and washing.

Experiment in data set [2]: as above
It is filed as physicochemical. The note with it: 6% quaternary salt solution, pH = 3.7, cured 120° C. 30 minutes.

[3] abbreviates: nylon fabric dyed with Acid Blue 113 1% owf.
[4] abbreviates: nylon fabric dyed with Acid Red 88 1% owf.

In the case of `CCCCCCCCCCCC[N+](C)(C)CC(O)C[N+](C)(C)CCCCCCCCCCCC.[Cl-].[Cl-]` [Dimer, 1,3-Bis-(N,N-dimethyldodecylammonium chloride)-2-propanol], the “Add-on rate after 7 washes (%)” value in data set [1] (Undyed nylon fabric) is recorded as −3.20%; in data set [1] (setting [3]), −2.54%; in data set [1] (setting [4]) it was −3.08%. Besides, the “Total weight loss after the + 7 washes (%)” value (“Total weight loss … (%)” below) in data set [1] (Undyed nylon fabric) is −0.47%; in data set [1] (setting [3]) it was −0.25%; in data set [1] (setting [4]), −0.09%. In addition, the “Add-on rate (%)” value was determined as 2.73% in data set [2] (Undyed nylon fabric), 2.29% in data set [2] (setting [3]) and 2.99% in data set [2] (setting [4]).
As to `CCCCCCCCCCCC[N+](C)(C)CC(O)CCl.[Cl-]` (stereo not drawn) [Monomer, N-(3-chloro-2-hydroxypropyl)-N,N-dimethyldodecylammonium chloride], the “Add-on rate after 7 washes (%)” value in data set [1] (Undyed nylon fabric) was −1.81%; in data set [1] (setting [3]), −2.44%; in data set [1] (setting [4]), −1.87%. Besides, the “Total weight loss … (%)” value in data set [1] (Undyed nylon fabric) is listed as −0.73%; in data set [1] (setting [3]), −0.43%; in data set [1] (setting [4]), −0.09%. Further, the “Add-on rate (%)” value in data set [2] (Undyed nylon fabric) amounted to 1.08%; in data set [2] (setting [3]), 2.01%; in data set [2] (setting [4]), 1.78%.
In the case of `CCCCCCCCCCCC[N+](C)(C)C.[Br-]` [DTAB, Dodecyltrimethyl ammonium bromide], the “Add-on rate after 7 washes (%)” value in data set [1] (Undyed nylon fabric) is −3.51%; in data set [1] (setting [3]), −3.48%; in data set [1] (setting [4]), −3.39%. Also, the figures for the “Total weight loss … (%)” value in data set [1] (Undyed nylon fabric), in data set [1] (setting [3]) and in data set [1] (setting [4]) were −1.00%, 0.28% and −0.04%, respectively. For the same compound, the entries for the “Add-on rate (%)” value in data set [2] (Undyed nylon fabric), in data set [2] (setting [3]) and in data set [2] (setting [4]) were 2.51%, 3.86% and 3.35%, respectively.
